Test results as given in US20230057568A1, “COMPOUNDS FOR TREATING FAMILIAL DYSAUTONOMIA” (PTC THERAPEUTICS, INC., priority 2019, published 2023).

Test system: Elongator complex protein 1 (ELP1, also referred to as IKBKAP)
Experiment: IKBKAP-HTRF Assay
Assay type: cell-based, human
Details: FD patient-derived fibroblasts GM04589, 48 hours incubation; for EC2x for IKBKAP protein expression (concentration producing two times the amount of IKBKAP protein vs DMSO vehicle control): 7-point concentration curve; for MFI (maximum fold increase in IKBKAP protein abundance relative to the vehicle control): HTRF
Method in brief: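 Sandwich HTRF (anti-IKAP d2 and K(9+8)) on cell lysates measured IKBKAP protein after overnight 4 °C incubation, read at 665 and 620 nm. Lysates came from FD patient cells exposed 48 hours to 7-point compound dilutions, in triplicate. Outputs: maximum fold increase over vehicle, and EC2× (the concentration giving twice the DMSO-control protein level).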

| SMILES | EC2x for IKBKAP protein expression (concentration producing two times the amount of IKBKAP protein vs DMSO vehicle control) | MFI (maximum fold increase in IKBKAP protein abundance relative to the vehicle control) |
| --- | --- | --- |
| CC(C)(C)[C@H](N)Cc1cc2nc(Cl)nc(NCc3ccco3)c2s1 [Cpd 7, 6-[(2R)-2-amino-3,3-dimethylbutyl]-2-chloro-N-[(furan-2-yl)methyl]thieno[3,2-d]pyrimidin-4-amine] | ** (between >0.5 μL and ≤1 μM) | * (MFI<1.9) |
| Cc1c(C[C@H](C)N)sc2c(NCc3nc(F)cs3)nc(Cl)nc12 [Cpd 92, 6-[(2S)-2-aminopropyl]-2-chloro-N-[(4-fluoro-1,3-thiazol-2-yl)methyl]-7-methylthieno[3,2-d]pyrimidin-4-amine] | ***** (<0.005 μM) | ***** (>4.9) |
| COC[C@H](N)Cc1sc2c(NCc3ccco3)nc(Cl)nc2c1C [Cpd 76, 6-[(2R)-2-amino-3-methoxypropyl]-2-chloro-N-[(furan-2-yl)methyl]-7-methylthieno[3,2-d]pyrimidin-4-amine] | ***** (<0.005 μM) | ***** (>4.9) |
| Cc1c(C[C@H](C)N)sc2c(NCc3cncs3)nc(Cl)nc12 [Cpd 74, 6-[(2S)-2-aminopropyl]-2-chloro-7-methyl-N-[(1,3-thiazol-5-yl)methyl]thieno[3,2-d]pyrimidin-4-amine] | *** (between >0.02 μM and ≤0.5 μM) | **** (between >3.9 and <4.9) |
| Cc1cnc(CNc2nc(Cl)nc3c(C)c(C[C@H](C)N)sc23)s1 [Cpd 31, 6-[(2S)-2-aminopropyl]-2-chloro-7-methyl-N-[(5-methyl-1,3-thiazol-2-yl)methyl]thieno[3,2-d]pyrimidin-4-amine] | *** (between >0.02 μM and ≤0.5 μM) | *** (between >2.9 and <3.9) |
| C[C@H](N)Cc1sc2c(NCc3ccco3)nc(Cl)nc2c1Br [Cpd 40, 6-[(2S)-2-aminopropyl]-7-bromo-2-chloro-N-[(furan-2-yl)methyl]thieno[3,2-d]pyrimidin-4-amine] | ***** (<0.005 μM) | ***** (>4.9) |
| Cc1c(C[C@H](C)N)sc2c(NCc3ccco3)nc(Br)nc12 [Cpd 38, 6-[(2S)-2-aminopropyl]-2-bromo-N-[(furan-2-yl)methyl]-7-methylthieno[3,2-d]pyrimidin-4-amine] | ***** (<0.005 μM) | ***** (>4.9) |
| Cc1c(C[C@@H](N)CO)sc2c(NCc3cccs3)nc(Cl)nc12 [Cpd 56, (2R)-2-amino-3-(2-chloro-7-methyl-4-{[(thiophen-2-yl)methyl]amino}thieno[3,2-d]pyrimidin-6-yl)propan-l-ol] | ***** (<0.005 μM) | ***** (>4.9) |
| C[C@H](N)Cc1sc2c(NCc3cccs3)nc(C#N)nc2c1Br [Cpd 83, 6-[(2S)-2-aminopropyl]-7-bromo-4-{[(thiophen-2-yl)methyl]amino}thieno[3,2-d]pyrimidine-2-carbonitrile] | **** (between >0.005 μM and ≤0.02 μM) | ***** (>4.9) |
| COc1c(C[C@@H](N)CO)sc2c(NCc3cccs3)nc(Cl)nc12 [Cpd 99, (2R)-2-amino-3-(2-chloro-7-methoxy-4-{[(thiophen-2-yl)methyl]amino}thieno[3,2-d]pyrimidin-6-yl)propan-1-ol] | **** (between >0.005 μM and ≤0.02 μM) | *** (between >2.9 and <3.9) |
| Cc1c(C[C@H](C)N)sc2c(NCc3c(F)cncc3F)nc(Cl)nc12 [Cpd 64, 6-[(2S)-2-aminopropyl]-2-chloro-N-[(3,5-difluoropyridin-4-yl)methyl]-7-methylthieno[3,2-d]pyrimidin-4-amine] | **** (between >0.005 μM and ≤0.02 μM) | ***** (>4.9) |
| Cc1c(C[C@@H](C)CO)sc2c(NCc3ccco3)nc(Cl)nc12 [Cpd 71, (2R)-3-(2-chloro-4-{[(furan-2-yl)methyl]amino}-7-methylthieno[3,2-d]pyrimidin-6-yl)-2-methylpropan-1-ol] | * (EC2×>1 μM) | * (MFI<1.9) |
| CC[C@@H](N)c1sc2c(NCc3ccco3)nc(Cl)nc2c1C [Cpd 49, 6-[(1R)-1-aminopropyl]-2-chloro-N-[(furan-2-yl)methyl]-7-methylthieno[3,2-d]pyrimidin-4-amine] | * (EC2×>1 μM) | * (MFI<1.9) |
| CCc1nc(NCc2ccco2)c2sc(C[C@H](C)N)c(C)c2n1 [Cpd 16, 6-[(2S)-2-aminopropyl]-2-ethyl-N-[(furan-2-yl)methyl]-7-methylthieno[3,2-d]pyrimidin-4-amine] | *** (between >0.02 μM and ≤0.5 μM) | *** (between >2.9 and <3.9) |
| Cc1c(C[C@H](C)CN)sc2c(NCc3ccco3)nc(Cl)nc12 [Cpd 70, 6-[(2S)-3-amino-2-methylpropyl]-2-chloro-N-[(furan-2-yl)methyl]-7-methylthieno[3,2-d]pyrimidin-4-amine] | *** (between >0.02 μM and ≤0.5 μM) | **** (between >3.9 and <4.9) |
| CC[C@H](N)Cc1sc2c(NCc3cccs3)nc(Cl)nc2c1C [Cpd 37, 6-[(2S)-2-aminobutyl]-2-chloro-7-methyl-N-[(thiophen-2-yl)methyl]thieno[3,2-d]pyrimidin-4-amine] | ***** (<0.005 μM) | ***** (>4.9) |
| C[C@H](N)Cc1sc2c(NCc3cccs3)nc(Cl)nc2c1C1CC1 [Cpd 86, 6-[(2S)-2-aminopropyl]-2-chloro-7-cyclopropyl-N-[(thiophen-2-yl)methyl]thieno[3,2-d]pyrimidin-4-amine] | **** (between >0.005 μM and ≤0.02 μM) | **** (between >3.9 and <4.9) |
| CC[C@H](N)Cc1sc2c(NCc3nccs3)nc(Cl)nc2c1C [Cpd 54, 6-[(2S)-2-aminobutyl]-2-chloro-7-methyl-N-[(1,3-thiazol-2-yl)methyl]thieno[3,2-d]pyrimidin-4-amine] | ***** (<0.005 μM) | ***** (>4.9) |
| Cc1c(C[C@H](C)N)sc2c(NCc3ncccn3)nc(Cl)nc12 [Cpd 55, 6-[(2S)-2-aminopropyl]-2-chloro-7-methyl-N-[(pyrimidin-2-yl)methyl]thieno[3,2-d]pyrimidin-4-amine] | *** (between >0.02 μM and ≤0.5 μM) | *** (between >2.9 and <3.9) |
| C[C@H](N)Cc1cc2nc(Cl)nc(NCc3ccco3)c2s1 [Cpd 3, 6-[(2S)-2-aminopropyl]-2-chloro-N-[(furan-2-yl)methyl]thieno[3,2-d]pyrimidin-4-amine] | **** (between >0.005 μM and ≤0.02 μM) | **** (between >3.9 and <4.9) |
| Cc1c(C[C@H](C)N)sc2c(NCc3ccncc3F)nc(Cl)nc12 [Cpd 35, 6-[(2S)-2-aminopropyl]-2-chloro-N-[(3-fluoropyridin-4-yl)methyl]-7-methylthieno[3,2-d]pyrimidin-4-amine] | ***** (<0.005 μM) | ***** (>4.9) |
| CC[C@H](N)c1sc2c(NCc3ccco3)nc(Cl)nc2c1C [Cpd 48, 6-[(1S)-1-aminopropyl]-2-chloro-N-[(furan-2-yl)methyl]-7-methylthieno[3,2-d]pyrimidin-4-amine] | *** (between >0.02 μM and ≤0.5 μM) | ** (between >1.9 and <2.9) |
| Cc1c(C[C@H](C)NC2CCC2)sc2c(NCc3ccco3)nc(Cl)nc12 [Cpd 78, 2-chloro-6-[(2S)-2-(cyclobutylamino)propyl]-N-[(furan-2-yl)methyl]-7-methylthieno[3,2-d]pyrimidin-4-amine] | *** (between >0.02 μM and ≤0.5 μM) | *** (between >2.9 and <3.9) |
| Cc1c(C[C@H](C)N)sc2c(NCc3ccco3)nc(Cl)nc12 [Cpd 12, 6-[(2S)-2-aminopropyl]-2-chloro-N-[(furan-2-yl)methyl]-7-methylthieno[3,2-d]pyrimidin-4-amine] | ***** (<0.005 μM) | ***** (>4.9) |
| Clc1nc(NCc2nccs2)c2sccc2n1 [Cpd 96, 2-chloro-N-[(1,3-thiazol-2-yl)methyl]thieno[3,2-d]pyrimidin-4-amine] | * (EC2×>1 μM) | ** (between >1.9 and <2.9) |
